According to the NIST ThermoML archive (doi:10.1016/j.fluid.2018.12.025):
Several values for one entry are separate records, joined by “and”; a condition that tells them apart may be missing. Identical values can stand only once. Numbers after ± are expanded uncertainties.

Settings: 101.33 kPa, Liquid, transient hot wire

CCCC[N+]1(C)CCCC1.O=S(=O)([N-]S(=O)(=O)C(F)(F)F)C(F)(F)F
Settings	thermal conductivity [W/m/K]
279.16 K	0.1159 ± 0.0037
294.59 K	0.115 ± 0.0037
306.65 K	0.1157 ± 0.0037
334.78 K	0.114 ± 0.0037
335.13 K	0.1143 ± 0.0037
338.98 K	0.1136 ± 0.0037
353.98 K	0.1153 ± 0.0037
362.23 K	0.1135 ± 0.0037
364.36 K	0.1142 ± 0.0037
383.56 K	0.1134 ± 0.0037
419.99 K	0.1126 ± 0.0036
438.07 K	0.1123 ± 0.0036

CCC[N+]1(C)CCCC1.O=S(=O)([N-]S(=O)(=O)C(F)(F)F)C(F)(F)F
Settings	thermal conductivity [W/m/K]
279.07 K	0.118 ± 0.0038
300.88 K	0.1176 ± 0.0038
318.32 K	0.1174 ± 0.0038
326.71 K	0.1167 ± 0.0038
340.17 K	0.1178 ± 0.0038
351.81 K	0.1166 ± 0.0038
354.65 K	0.1172 ± 0.0038
389.67 K	0.1162 ± 0.0038
408.29 K	0.1142 ± 0.0037
409.24 K	0.1156 ± 0.0037
434.89 K	0.115 ± 0.0037
435.53 K	0.1138 ± 0.0037

Cc1ccccc1 [toluene]
Settings	thermal conductivity
276.19 K	0.1359 ± 0.0044 W/m/K
278.42 K	0.1339 ± 0.0043 W/m/K
281.25 K	0.1324 ± 0.0043 W/m/K and 0.1325 ± 0.0043 W/m/K
302.05 K	0.129 ± 0.0042 W/m/K
304.59 K	0.1268 ± 0.0041 W/m/K
329.65 K	0.1235 ± 0.004 W/m/K
331.24 K	0.1237 ± 0.004 W/m/K
337.63 K	0.1242 ± 0.004 W/m/K
339.65 K	0.122 ± 0.0039 W/m/K
339.85 K	0.1226 ± 0.004 W/m/K
340.17 K	0.12 ± 0.0039 W/m/K
351.33 K	0.1166 ± 0.0038 W/m/K
351.55 K	0.12 ± 0.0039 W/m/K
352.25 K	0.1179 ± 0.0038 W/m/K

O [water]
Settings	thermal conductivity [W/m/K]
276.41 K	0.5538 ± 0.018
300.61 K	0.6257 ± 0.02
303.32 K	0.6103 ± 0.02
306.14 K	0.6095 ± 0.02
325.57 K	0.6581 ± 0.021
329.48 K	0.6422 ± 0.021
333.39 K	0.6498 ± 0.021
350.97 K	0.6877 ± 0.022
355.05 K	0.672 ± 0.022
356 K	0.6781 ± 0.022
356.22 K	0.6716 ± 0.022
356.54 K	0.6823 ± 0.022
356.76 K	0.6589 ± 0.021
356.9 K	0.6827 ± 0.022
360.47 K	0.6765 ± 0.022
361.52 K	0.6756 ± 0.022
